Normal melting temperature data for one molecule are collected here from the NIST ThermoML archive (doi:10.1021/je900355h).

The conditions of the data set: Crystal; visual observation.

Structures are written as SMILES. Numbers after ± are expanded uncertainties.

Consider `F[P-](F)(F)(F)(F)F.F[P-](F)(F)(F)(F)F.c1cc[n+](CCCCC[n+]2ccccc2)cc1` [1,1'-(1,5-pentanediyl)bis-pyridinium hexafluorophosphate], for which the Normal melting temperature stood at 198.40 ± 1.2 °C.
